Consider 22 compounds from patent US11040981B2, “Pyrrolotriazine compounds and methods of inhibiting TAM kinases” (Syros Pharmaceuticals, Inc., priority 2017, dated 2021).

For orientation: IC50 means the concentration that inhibits the measured activity by half.

SMILES strings stand for the structures. Structures can show the parent of a compound that is named as a salt.

One assay has as its target T1, AXL (Homo sapiens, UniProt P30530).
T1 sequence (P30530 26-894): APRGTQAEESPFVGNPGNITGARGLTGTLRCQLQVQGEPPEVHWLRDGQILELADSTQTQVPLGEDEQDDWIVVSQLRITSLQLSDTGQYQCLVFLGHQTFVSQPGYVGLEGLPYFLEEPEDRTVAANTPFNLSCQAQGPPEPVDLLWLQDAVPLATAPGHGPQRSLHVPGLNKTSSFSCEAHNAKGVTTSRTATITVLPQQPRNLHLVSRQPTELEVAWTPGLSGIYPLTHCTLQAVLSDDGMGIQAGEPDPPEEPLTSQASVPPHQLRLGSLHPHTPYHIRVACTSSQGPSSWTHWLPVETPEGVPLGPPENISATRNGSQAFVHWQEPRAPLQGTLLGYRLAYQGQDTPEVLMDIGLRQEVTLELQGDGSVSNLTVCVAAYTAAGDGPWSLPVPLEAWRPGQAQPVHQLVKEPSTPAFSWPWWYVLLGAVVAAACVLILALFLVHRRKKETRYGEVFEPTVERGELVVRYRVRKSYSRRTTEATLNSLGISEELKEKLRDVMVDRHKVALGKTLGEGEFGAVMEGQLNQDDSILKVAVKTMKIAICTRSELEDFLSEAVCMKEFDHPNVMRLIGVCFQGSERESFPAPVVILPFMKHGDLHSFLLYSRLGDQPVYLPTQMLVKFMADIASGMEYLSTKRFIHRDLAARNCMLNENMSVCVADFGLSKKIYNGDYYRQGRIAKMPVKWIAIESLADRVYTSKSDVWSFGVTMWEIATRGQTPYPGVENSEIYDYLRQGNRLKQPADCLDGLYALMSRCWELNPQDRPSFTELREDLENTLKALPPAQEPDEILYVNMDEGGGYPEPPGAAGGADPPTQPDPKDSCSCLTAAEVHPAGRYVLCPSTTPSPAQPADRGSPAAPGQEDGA
The assay is described as follows: TR-FRET kinase activity assay, AXL. Conditions: ATP at Km, 60 minutes. The format is biochemical. In outline: (§1)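 Enzyme + labelled peptide + cpd premixed; ATP at per-enzyme Km starts rxn. 60 min RT, HEPES pH 7.5/MgCl2/EGTA/Brij 35/DTT buffer. Stop 12.5 mM EDTA, Eu phospho-Ab 30 min dark, TR-FRET read → IC50.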

In another assay the target is T2, MERTK (Homo sapiens, UniProt Q12866).
T2 sequence (Q12866 21-999): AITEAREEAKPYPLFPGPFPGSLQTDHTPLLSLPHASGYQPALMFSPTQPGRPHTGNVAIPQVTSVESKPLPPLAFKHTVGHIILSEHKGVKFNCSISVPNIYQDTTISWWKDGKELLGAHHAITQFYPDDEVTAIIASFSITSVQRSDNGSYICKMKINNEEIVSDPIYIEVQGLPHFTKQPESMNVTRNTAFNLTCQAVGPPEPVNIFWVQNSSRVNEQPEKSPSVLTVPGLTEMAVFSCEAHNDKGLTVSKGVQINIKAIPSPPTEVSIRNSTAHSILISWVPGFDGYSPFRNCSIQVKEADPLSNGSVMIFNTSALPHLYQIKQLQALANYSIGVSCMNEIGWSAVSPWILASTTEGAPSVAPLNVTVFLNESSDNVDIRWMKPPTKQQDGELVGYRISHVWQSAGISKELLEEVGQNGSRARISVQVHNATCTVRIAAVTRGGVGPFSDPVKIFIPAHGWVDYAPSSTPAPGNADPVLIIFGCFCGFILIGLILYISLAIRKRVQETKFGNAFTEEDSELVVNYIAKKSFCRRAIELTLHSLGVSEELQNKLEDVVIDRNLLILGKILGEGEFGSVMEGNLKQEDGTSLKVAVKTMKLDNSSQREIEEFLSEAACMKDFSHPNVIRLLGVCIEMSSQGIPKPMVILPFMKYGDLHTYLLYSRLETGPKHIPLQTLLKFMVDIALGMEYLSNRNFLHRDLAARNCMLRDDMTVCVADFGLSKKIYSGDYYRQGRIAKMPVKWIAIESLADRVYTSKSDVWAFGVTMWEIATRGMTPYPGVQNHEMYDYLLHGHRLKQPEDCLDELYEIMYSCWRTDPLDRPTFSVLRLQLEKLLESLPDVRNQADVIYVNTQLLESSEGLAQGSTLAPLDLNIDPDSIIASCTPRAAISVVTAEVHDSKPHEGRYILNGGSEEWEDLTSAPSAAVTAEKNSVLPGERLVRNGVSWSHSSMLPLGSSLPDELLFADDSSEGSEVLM
The assay can be described thus: TR-FRET kinase activity assay, MERTK. The format is biochemical. The following applies: for IC50: TR-FRET activity assay, ATP at Km, 60 minutes, read-out: Mer IC50; for FLT3/Mer ratio (FLT3 IC50/Mer IC50): ratio of Mer to FLT3: FLT3 IC50/Mer IC50. In a few lines: as §1
In general terms: TR-FRET usually uses a lanthanide donor and a delayed reading to cut background.

Regarding `Cc1cc(-c2cc([C@H]3CC[C@H](O)CC3)n3nc(N[C@@H](C)COC(F)F)ncc23)ccn1` [Compound 313], at AXL, the IC50 is no more than 100 nM. In addition, at MERTK, the IC50 is no more than 100 nM and the “FLT3/Mer ratio (FLT3 IC50/Mer IC50)” value was “+++ (“+++” represents a ratio of >100)”.
Regarding `CC[C@H](C)Nc1ncc2c(-c3ccc(CN4CCN(C)CC4)cc3)cc([C@H]3CC[C@H](O)CC3)n2n1` [Compound 118], the IC50 against AXL and at MERTK was no more than 100 nM in each case. Further, the “FLT3/Mer ratio (FLT3 IC50/Mer IC50)” value at MERTK is “++ (“++” represents a ratio of between 10 and 100)”.
Regarding `C[C@@H](CC(F)(F)F)Nc1ncc2c(-c3cn[nH]c3)cc([C@H]3CC[C@H](O)CC3)n2n1` [Compound 276], the IC50 on AXL and on MERTK was no more than 100 nM throughout. For the same compound, the “FLT3/Mer ratio (FLT3 IC50/Mer IC50)” value on MERTK is “+++ (“+++” represents a ratio of >100)”.
Take `COC[C@H](C)Nc1ncc2c(-c3cnn(C4CN(CCC(F)(F)F)C4)c3)cc([C@H]3CC[C@H](O)CC3)n2n1` [Compound 291]: the IC50 against AXL and at MERTK was no more than 100 nM throughout. Further, the “FLT3/Mer ratio (FLT3 IC50/Mer IC50)” value at MERTK is listed as “+++ (“+++” represents a ratio of >100)”.
In turn, `C[C@@H](CC(F)(F)F)Nc1ncc2c(-c3ccc(S(C)(=O)=O)nc3)cc([C@H]3CC[C@H](O)CC3)n2n1` [Compound 297] displayed an IC50 against AXL of no more than 100 nM. On MERTK, the IC50 was no more than 100 nM; the “FLT3/Mer ratio (FLT3 IC50/Mer IC50)” value is “++ (“++” represents a ratio of between 10 and 100)”.
`COC[C@H](C)Nc1ncc2c(-c3cnn(C(C)(C)C(=O)N4CCC5(COC5)C4)c3)cc([C@H]3CC[C@H](O)CC3)n2n1` [Compound 318]: the IC50 at AXL and on MERTK was no more than 100 nM each time. Further, on MERTK, the “FLT3/Mer ratio (FLT3 IC50/Mer IC50)” value was “+++ (“+++” represents a ratio of >100)”.
Turning to `C[C@@H](CC(F)(F)F)Nc1ncc2c(-c3cncc(C(=O)N(C)C)c3)cc([C@H]3CC[C@H](O)CC3)n2n1` [Compound 310], the IC50 against AXL was no more than 100 nM. In addition, at MERTK, the IC50 is no more than 100 nM and the “FLT3/Mer ratio (FLT3 IC50/Mer IC50)” value is recorded as “+++ (“+++” represents a ratio of >100)”.
As for `Cc1nnc(Cn2cc(-c3cc([C@H]4CC[C@H](O)CC4)n4nc(N[C@@H](C)COC(F)F)ncc34)cn2)o1` [Compound 312], the IC50 at AXL was no more than 100 nM. At MERTK, the IC50 is no more than 100 nM and the “FLT3/Mer ratio (FLT3 IC50/Mer IC50)” value is reported as “+++ (“+++” represents a ratio of >100)”.
For `COC[C@H](C)Nc1ncc2c(-c3cnn(Cc4cncc(C)n4)c3)cc([C@H]3CC[C@H](O)CC3)n2n1` [Compound 329], the IC50 on AXL is no more than 100 nM. Besides, on MERTK, the IC50 was no more than 100 nM and the “FLT3/Mer ratio (FLT3 IC50/Mer IC50)” value is listed as “+++ (“+++” represents a ratio of >100)”.
Turning to `COC[C@H](C)Nc1ncc2c(-c3cc(C)nc(C)c3)cc([C@H]3CC[C@H](O)CC3)n2n1` [Compound 308], the half-inhibitory concentration (IC50) against AXL lay within 100 to 1000 nM. Moreover, on MERTK, the IC50 was no more than 100 nM and the “FLT3/Mer ratio (FLT3 IC50/Mer IC50)” value is “+++ (“+++” represents a ratio of >100)”.
Taken in the same sequence, the figures for `COC[C@H](C)Nc1ncc2c(-c3cnn(C(C)(C)C(=O)C4C[C@H]5COC[C@H]5C4)c3)cc([C@H]3CC[C@H](O)CC3)n2n1` (stereo partly drawn) [Compound 319] were no more than 100 nM, no more than 100 nM and “+++ (“+++” represents a ratio of >100)”.
For `CNC(=O)c1ccc(-c2cc([C@H]3CC[C@H](O)CC3)n3nc(N[C@@H](C)COC)ncc23)cn1` [Compound 317], in that order: no more than 100 nM, no more than 100 nM and “+++ (“+++” represents a ratio of >100)”.
`CCCCC[C@H](C)Nc1ncc2c(C3CCNCC3)cc([C@H]3CC[C@H](O)CC3)n2n1` [Compound 116, (1S,4r)-4-(2-((S)-heptan-2-ylamino)-5-(piperidin-4-yl)pyrrolo[2,1-f][1,2,4]triazin-7-yl)cyclohexanol hydrochloride]: the IC50 on AXL and on MERTK was no more than 100 nM in each case. Further, the “FLT3/Mer ratio (FLT3 IC50/Mer IC50)” value on MERTK is “+++ (“+++” represents a ratio of >100)”.
On to `COC[C@H](C)Nc1ncc2c(-c3cnn(C4CN(C(=O)C5COC5)C4)c3)cc([C@H]3CC[C@H](O)CC3)n2n1` [Compound 293], for which the IC50 against AXL and on MERTK was no more than 100 nM in each case. Besides, at MERTK, the “FLT3/Mer ratio (FLT3 IC50/Mer IC50)” value is “+++ (“+++” represents a ratio of >100)”.
On AXL, `COC[C@H](C)Nc1ncc2c(-c3cnn([C@@H]4CCNC4=O)c3)cc([C@H]3CC[C@H](O)CC3)n2n1` [Compound 315] registered an IC50 of no more than 100 nM. Further, on MERTK, the IC50 was no more than 100 nM and the “FLT3/Mer ratio (FLT3 IC50/Mer IC50)” value is given as “+++ (“+++” represents a ratio of >100)”.
As to `COC[C@H](C)Nc1ncc2c(-c3ccnc(OC(C)C)c3)cc([C@H]3CC[C@H](O)CC3)n2n1` [Compound 343], the IC50 at AXL is no more than 100 nM. On MERTK, the IC50 is no more than 100 nM and the “FLT3/Mer ratio (FLT3 IC50/Mer IC50)” value was “+++ (“+++” represents a ratio of >100)”.
For the compound `COC[C@H](C)Nc1ncc2c(-c3cnn(Cc4ccnnc4)c3)cc([C@H]3CC[C@H](O)CC3)n2n1` [Compound 281], the IC50 at AXL and at MERTK was no more than 100 nM each time. In addition, on MERTK, the “FLT3/Mer ratio (FLT3 IC50/Mer IC50)” value is recorded as “+++ (“+++” represents a ratio of >100)”.
On AXL, `CNC(=O)c1ncc(-c2cc([C@H]3CC[C@H](O)CC3)n3nc(N[C@@H](C)COC)ncc23)cn1` [Compound 334] had an IC50 of 100 to 1000 nM. Moreover, at MERTK, the IC50 is no more than 100 nM and the “FLT3/Mer ratio (FLT3 IC50/Mer IC50)” value is “+++ (“+++” represents a ratio of >100)”.
In turn, `CCCCC[C@H](C)Nc1ncc2c(N3CCNCC3)cc([C@H]3CC[C@H](O)CC3)n2n1` [Compound 114] displayed an IC50 against AXL of no more than 100 nM. At MERTK, the IC50 was no more than 100 nM and the “FLT3/Mer ratio (FLT3 IC50/Mer IC50)” value was “+++ (“+++” represents a ratio of >100)”.
Regarding `CNC(=O)c1cc(-c2cc([C@H]3CC[C@H](O)CC3)n3nc(N[C@@H](C)COC)ncc23)cc(C)n1` [Compound 335], on AXL, the IC50 is 100 to 1000 nM. Further, on MERTK, the IC50 was no more than 100 nM and the “FLT3/Mer ratio (FLT3 IC50/Mer IC50)” value is listed as “+++ (“+++” represents a ratio of >100)”.
Taken in the same sequence, the figures for `COC[C@H](C)Nc1ncc2c(-c3cnn(C(C)(C)C(=O)N4CCS(=O)(=O)CC4)c3)cc([C@H]3CC[C@H](O)CC3)n2n1` [Compound 331, 1-(1,1-dioxidothiomorpholino)-2-(4-(7-((trans)-4-hydroxycyclohexyl)-2-(((S)-1-methoxypropan-2-yl)amino)pyrrolo[2,1-f][1,2,4]triazin-5-yl)-1H-pyrazol-1-yl)-2-methylpropan-1-one] were no more than 100 nM, no more than 100 nM and “+++ (“+++” represents a ratio of >100)”.
`COC[C@H](C)Nc1ncc2c(-c3ccc(CN4CCOCC4)cc3)cc([C@H]3CC[C@H](NS(C)(=O)=O)CC3)n2n1` [Compound 301]: the IC50 against AXL is no more than 100 nM. Also, on MERTK, the IC50 was no more than 100 nM and the “FLT3/Mer ratio (FLT3 IC50/Mer IC50)” value is given as “+++ (“+++” represents a ratio of >100)”.
